Our source for the IC50 values is US9096595B2, “7-(heteroaryl-amino)-6,7,8,9-tetrahydropyrido[1,2-a]indol acetic acid derivatives and their use as prostaglandin D2 receptor modulators” (Actelion Pharmaceuticals Ltd, priority 2011, dated 2015).

Experiment [1] addresses T1, hCRTH2 receptor (Homo sapiens (Human), UniProt Q9Y5Y4). Kind of experiment: Radioligand displacement assay in presence of human serum albumin (HSA). Conditions: 3H-PGD2 2.5 nM, HEK293-hCRTH2 membrane fragments, Binding-Buffer-HSA with 0.5% human serum albumin instead of 0.1% BSA. On the procedure: (§1) First, recombinant HEK293-hCRTH2 cells were detached from culture plates into 5 ml buffer A/plate (Buffer A: 5 mM Tris, 1 mM MgCl2-6H2O pH=7.4) using a rubber policeman. Cells were then transferred into centrifugation tubes and centrifuged for 5 min at 400 g. The cell pellet was resuspended in the same buffer and tubes were frozen at −80° C. Cells were thawed and membrane fragments were generated by homogenization using a polytron homogenizer (30 seconds). The membrane fragments were then centrifuged at 3000 g for 20 minutes and resuspended in buffer C (Buffer C: 75 mM Tris, 25 mM MgCl2, 250 mM Saccharose pH 7.4). Aliquots of membrane fragments were stored at −20° C.
(§2) Binding assay was performed in a final assay volume of 250 μl. First, 25 μl of test compound, previously diluted in Binding-Buffer (Binding-Buffer: 50 mM Tris-Base, 100 mM NaCl, 1 mM EDTA, 0.1% BSA (protease free), 0.01% NaN3, 10 mM MnCl2 pH 7.0) was placed into each well. After addition of 75 μl Binding-Buffer, 50 μl of the radioligand ^3H-PGD2 (at 2.5 nM (220.000 dpm/well) from ANAWA ART0662) was added to each well. Binding assay was started by addition of 100 μl CRTH2 membrane fragments, reaching a final concentration of 20 μg/well. For non-specific binding, PGD2 was added to the reaction mixture to […] final concentration. This assay mix was incubated for 90 minutes at room temperature and then filtered through a GF/C filter 96-well plate which was pre-soaked for 3 hours in 0.5% polyethyleneimine (PEI). The filter-wells were washed three times with ice cold Binding-Buffer. Then, 40 μl of Microscint-40 (Packard) was added to each well and the retained radioactivity quantified in a Topcount (Packard).
Radioligand displacement assay in presence of human serum albumin (HSA) was performed as described above, with following modifications. Binding-Buffer-HSA: Binding-buffer+0.5% Sigma Albumin from Human serum A1887 (instead of 0.1% BSA). A volume of 25 μl test compound, previously diluted in Binding-Buffer-HSA was placed into each well. After addition of 75 μl Binding-Buffer-HSA, 50 μl of ^3H-PGD2 (at 2.5 nM (220.000 dpm/well) from ANAWA ART0662) was added to each well. Remaining protocol was identical as described above.
On the technique in general: Displacement assays read how much labelled ligand stays bound in the presence of the test substance.

Experiment [2] concerns the target T1, hCRTH2 receptor. Kind of experiment: hCRTH2 receptor membranes radioligand (3H-PGD2) displacement assay. Conditions: 3H-PGD2 2.5 nM, HEK293-hCRTH2 membrane fragments, Binding-Buffer with 0.1% BSA. On the procedure: as §1, §2

T1 sequence (Q9Y5Y4 whole entry, the tested form may be a part): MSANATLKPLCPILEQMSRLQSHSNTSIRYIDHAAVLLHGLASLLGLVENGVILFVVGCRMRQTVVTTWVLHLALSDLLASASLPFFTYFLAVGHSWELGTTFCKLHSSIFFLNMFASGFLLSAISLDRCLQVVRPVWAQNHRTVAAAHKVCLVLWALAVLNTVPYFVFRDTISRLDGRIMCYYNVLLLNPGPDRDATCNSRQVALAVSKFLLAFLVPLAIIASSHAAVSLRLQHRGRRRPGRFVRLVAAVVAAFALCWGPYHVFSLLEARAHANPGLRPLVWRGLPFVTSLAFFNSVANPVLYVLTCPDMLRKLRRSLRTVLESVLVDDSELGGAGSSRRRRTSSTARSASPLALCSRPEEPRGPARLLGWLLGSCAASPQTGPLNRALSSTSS

On to `CN(c1ncc(Cl)cn1)C1CCc2c(CC(=O)O)c3ccccc3n2C1` (stereo not drawn) [Example 1, 2-(7-((5-chloropyrimidin-2-yl)(methyl)amino)-6,7,8,9-tetrahydropyrido[1,2-a]indol-10-yl)acetic acid], for which the figures for the IC50 on hCRTH2 receptor [1] and on hCRTH2 receptor [2] were 66 nM and 21 nM, respectively.

Consider `CN(c1ncc(F)cn1)C1CCc2c(CC(=O)O)c3ccccc3n2C1` (stereo not drawn) [Example 2, 2-(7-((5-fluoropyrimidin-2-yl)(methyl)amino)-6,7,8,9-tetrahydropyrido[1,2-a]indol-10-yl)acetic acid], for which the IC50 (in general, the midpoint of a concentration-inhibition curve) on hCRTH2 receptor [1] was determined as 29 nM; at hCRTH2 receptor [2], 9 nM.

For `CN(c1ncc(C(F)(F)F)cn1)C1CCc2c(CC(=O)O)c3ccccc3n2C1` (stereo not drawn) [Example 3, 2-(7-(methyl(5-(trifluoromethyl)pyrimidin-2-yl)amino)-6,7,8,9-tetrahydropyrido[1,2-a]indol-10-yl)acetic acid], the IC50 amounted to 152 nM at hCRTH2 receptor [1] and 8 nM at hCRTH2 receptor [2].

Consider `CN(c1nc2ccc(F)cc2s1)C1CCc2c(CC(=O)O)c3ccccc3n2C1` (stereo not drawn) [Example 4, 2-(7-((6-fluorobenzo[d]thiazol-2-yl)(methyl)amino)-6,7,8,9-tetrahydropyrido[1,2-a]indol-10-yl)acetic acid], for which the IC50 at hCRTH2 receptor [1] was 43 nM; at hCRTH2 receptor [2], 9 nM.

As to `CN(c1nc2cc(F)ccc2o1)C1CCc2c(CC(=O)O)c3ccccc3n2C1` (stereo not drawn) [Example 5, 2-(7-((5-fluorobenzo[d]oxazol-2-yl)(methyl)amino)-6,7,8,9-tetrahydropyrido[1,2-a]indol-10-yl)acetic acid], the IC50 on hCRTH2 receptor [1] was found to be 24 nM; on hCRTH2 receptor [2], 16 nM.

With `CN(c1nc2cc(F)ccc2s1)C1CCc2c(CC(=O)O)c3ccccc3n2C1` (stereo not drawn) [Example 6, 2-(7-((5-fluorobenzo[d]thiazol-2-yl)(methyl)amino)-6,7,8,9-tetrahydropyrido[1,2-a]indol-10-yl)acetic acid], the IC50 at hCRTH2 receptor [1] was 59 nM; at hCRTH2 receptor [2], 92 nM.

`CN(c1ncc(F)cn1)C1CCc2c(CC(=O)O)c3cc(F)ccc3n2C1` (stereo not drawn) [Example 7, 2-(2-fluoro-7-((5-fluoropyrimidin-2-yl)(methyl)amino)-6,7,8,9-tetrahydropyrido[1,2-a]indol-10-yl)acetic acid]: the half-maximal inhibitory concentration (IC50) came to 119 nM on hCRTH2 receptor [1] and 17 nM at hCRTH2 receptor [2].

Regarding `CN(c1nc2cc(F)ccc2o1)C1CCc2c(CC(=O)O)c3cc(F)ccc3n2C1` (stereo not drawn) [Example 8, 2-(2-fluoro-7-((5-fluorobenzo[d]oxazol-2-yl)(methyl)amino)-6,7,8,9-tetrahydropyrido[1,2-a]indol-10-yl)acetic acid], the IC50 at hCRTH2 receptor [1] worked out at 123 nM; at hCRTH2 receptor [2] it was 12 nM.

Turning to `CN(c1ncc(F)cn1)C1CCc2c(CC(=O)O)c3ccc(F)cc3n2C1` (stereo not drawn) [Example 9, 2-(3-fluoro-7-((5-fluoropyrimidin-2-yl)(methyl)amino)-6,7,8,9-tetrahydropyrido[1,2-a]indol-10-yl)acetic acid], the IC50 on hCRTH2 receptor [1] was 10 nM; on hCRTH2 receptor [2], 1 nM.

As for `CN(c1nc2cc(F)ccc2o1)C1CCc2c(CC(=O)O)c3ccc(F)cc3n2C1` (stereo not drawn) [Example 10, 2-(3-fluoro-7-((5-fluorobenzo[d]oxazol-2-yl)(methyl)amino)-6,7,8,9-tetrahydropyrido[1,2-a]indol-10-yl)acetic acid], the half-maximal inhibitory concentration (IC50) on hCRTH2 receptor [1] was determined as 7 nM; at hCRTH2 receptor [2], 0.7 nM.

As to `COc1ccc2c(c1)c(CC(=O)O)c1n2CC(N(C)c2ncc(F)cn2)CC1` (stereo not drawn) [Example 11, 2-(7-((5-fluoropyrimidin-2-yl)(methyl)amino)-2-methoxy-6,7,8,9-tetrahydropyrido[1,2-a]indol-10-yl)acetic acid], the IC50 at hCRTH2 receptor [2] came to 420 nM.

For `COc1ccc2c(c1)c(CC(=O)O)c1n2CC(N(C)c2nc3cc(F)ccc3o2)CC1` (stereo not drawn) [Example 12, 2-(7-((5-fluorobenzo[d]oxazol-2-yl)(methyl)amino)-2-methoxy-6,7,8,9-tetrahydropyrido[1,2-a]indol-10-yl)acetic acid], the IC50 on hCRTH2 receptor [2] is 231 nM.

As to `Cc1ccc2c(c1)c(CC(=O)O)c1n2CC(N(C)c2ncc(F)cn2)CC1` (stereo not drawn) [Example 13, 2-(7-((5-fluoropyrimidin-2-yl)(methyl)amino)-2-methyl-6,7,8,9-tetrahydropyrido[1,2-a]indol-10-yl)acetic acid], the IC50 on hCRTH2 receptor [2] was found to be 417 nM.

Take `Cc1ccc2c(c1)c(CC(=O)O)c1n2CC(N(C)c2nc3cc(F)ccc3o2)CC1` (stereo not drawn) [Example 14, 2-(7-((5-fluorobenzo[d]oxazol-2-yl)(methyl)amino)-2-methyl-6,7,8,9-tetrahydropyrido[1,2-a]indol-10-yl)acetic acid]: the IC50 at hCRTH2 receptor [1] is more than 1000 nM; at hCRTH2 receptor [2], 42 nM.

Compound `CN(c1ncc(F)cn1)C1CCc2c(CC(=O)O)c3cc(Cl)ccc3n2C1` (stereo not drawn) [Example 15, 2-(2-chloro-7-((5-fluoropyrimidin-2-yl)(methyl)amino)-6,7,8,9-tetrahydropyrido[1,2-a]indol-10-yl)acetic acid] yielded an IC50 at hCRTH2 receptor [2] of 136 nM.

Take `CN(c1nc2cc(F)ccc2o1)C1CCc2c(CC(=O)O)c3cc(Cl)ccc3n2C1` (stereo not drawn) [Example 16, 2-(2-chloro-7-((5-fluorobenzo[d]oxazol-2-yl)(methyl)amino)-6,7,8,9-tetrahydropyrido[1,2-a]indol-10-yl)acetic acid]: the IC50 is more than 1000 nM at hCRTH2 receptor [1] and 21 nM at hCRTH2 receptor [2].

In the case of `CN(c1ncc(Cl)cn1)C1CCc2c(CC(=O)O)c3ccc(F)cc3n2C1` (stereo not drawn) [Example 17, 2-(7-((5-chloropyrimidin-2-yl)(methyl)amino)-3-fluoro-6,7,8,9-tetrahydropyrido[1,2-a]indol-10-yl)acetic acid], the IC50 at hCRTH2 receptor [1] worked out at 46 nM; at hCRTH2 receptor [2], 4 nM.

Turning to `CN(c1nc2cc(F)ccc2s1)C1CCc2c(CC(=O)O)c3ccc(F)cc3n2C1` (stereo not drawn) [Example 19, 2-(3-fluoro-7-((5-fluorobenzo[d]thiazol-2-yl)(methyl)amino)-6,7,8,9-tetrahydropyrido[1,2-a]indol-10-yl)acetic acid], on hCRTH2 receptor [2], the IC50 is 51 nM.

`CN(c1ncc(Cl)cn1)C1CCc2c(CC(=O)O)c3cc(OC(F)(F)F)ccc3n2C1` (stereo not drawn) [Example 23, 2-(7-((5-chloropyrimidin-2-yl)(methyl)amino)-2-(trifluoromethoxy)-6,7,8,9-tetrahydropyrido[1,2-a]indol-10-yl)acetic acid] displayed an IC50 on hCRTH2 receptor [2] of 354 nM.

`CN(c1ncc(F)cn1)C1CCc2c(CC(=O)O)c3cc(OC(F)(F)F)ccc3n2C1` (stereo not drawn) [Example 25, 2-(7-((5-fluoropyrimidin-2-yl)(methyl)amino)-2-(trifluoromethoxy)-6,7,8,9-tetrahydropyrido[1,2-a]indol-10-yl)acetic acid] displayed an IC50 at hCRTH2 receptor [2] of 141 nM.

Regarding `CN(c1nc2ccc(F)cc2s1)C1CCc2c(CC(=O)O)c3cc(OC(F)(F)F)ccc3n2C1` (stereo not drawn) [Example 27, 2-(7-((6-fluorobenzo[d]thiazol-2-yl)(methyl)amino)-2-(trifluoromethoxy)-6,7,8,9-tetrahydropyrido[1,2-a]indol-10-yl)acetic acid], the half-maximal inhibitory concentration (IC50) at hCRTH2 receptor [2] was found to be 812 nM.

Turning to `CN(c1nc2cc(F)ccc2o1)C1CCc2c(CC(=O)O)c3cc(OC(F)(F)F)ccc3n2C1` (stereo not drawn) [Example 29, 2-(7-((5-fluorobenzo[d]oxazol-2-yl)(methyl)amino)-2-(trifluoromethoxy)-6,7,8,9-tetrahydropyrido[1,2-a]indol-10-yl)acetic acid], the IC50 on hCRTH2 receptor [2] was 964 nM.

The compound `Cc1nc(N(C)C2CCc3c(CC(=O)O)c4ccc(Cl)cc4n3C2)c2ccccc2n1` (stereo not drawn) [Example 42, 2-(3-chloro-7-(methyl(2-methylquinazolin-4-yl)amino)-6,7,8,9-tetrahydropyrido[1,2-a]indol-10-yl)acetic acid] displayed an IC50 on hCRTH2 receptor [2] of 71 nM.
